Assay results from US20020110801A1, “A Method for screening compounds for the modulation of cognitive function” (priority 1998, published 2002).
Marks after values point to notes of the source that are not given here.

How the values were obtained:
[1] = tested on: dendritic spine motility in hippocampal neurons expressing GFP-actin; type: cell-based, rat; conditions: for effect of NMDA receptor blockade on spine motility: antagonist alone; for influence on the inhibition of motility by AMPA: antagonist present with AMPA
Experimental: In this example it is shown that dendritic spine motility is inhibited by AMPA. To assess the influence of glutamate receptors on dendritic spine motility video recordings are made during which agonists and antagonists of ionotropic glutamate receptors are transiently applied to hippocampal neurons expressing GFP-actin. For example, such a recording is made from part of the dendrite of a GFP-actin expressing cell in a culture that is exposed to 200 nM AMPA. In initial titration experiments, AMPA is effective at concentrations as low as 50 nM. […] The striking extent of this motility blockade may be illustrated by video data. […] In order to exclude the effect being a consequence of indirect NMDA receptor activation, the experiment may be repeated in presence of the selective NMDA receptor antagonists APV and MK801. Data may be recorded for several spines on a single dendrite segment at high magnification so that the effect of AMPA on individual spines is visible. […] The results for APV are equivalent. Such frames are taken from a longer video recording encompassing a much larger area of this dendrite and several different drug combinations. […]
All reagents for cell culturing are obtained either from Life Technologies, Basel, Switzerland, or from Sigma Chemicals/Fluka Biochemicals, Buchs, Switzerland. Cultures of primary rat hippocampal neurons are established exactly according to Goslin and Banker (Rat hippocampal neurons in low-density culture, in Culturing Nerve Cells (Bradford Book, MIT Press, Cambridge, Mass., 1991) G. Banker and K. Goslin, eds.). Briefly, dissected hippocampi of E19 rat embryos are digested with 0.25% trypsin for 15 min at 37° C. and triturated to yield a single cell suspension using a narrow-bore pasteur pipet. Neurons are plated onto polylysine treated glass coverslips in Eagle's minimal essential medium supplemented with 10% horse serum. After a 4 hr incubation the coverslips are turned over onto confluent layers of primary astroglial feeder layers in chemically defined Eagle's minimal essential medium with N2 supplement. Over a time period of 3-4 weeks, neurons develop large networks of processes and eventually matured to carry synapses on dendritic spines.
For live imaging, coverslips are mounted in saline in closed observation chambers (Type 1, Life Imaging Services, Olten, Switzerland) and placed at 37° C. on a DM-IRBE inverted fluorescence microscope (Leica, Basel, Switzerland) equipped with high numerical aperture oil lenses and a GFP-optimized filter set (Chroma Technologies, Brattleboro, Vt., USA). […]
Drugs are either applied by gravity feed perfusion or by removing the chamber lid and adding the test substance. […] The pH is adjusted to 7.2. [NMDA and AMPA receptor activity is influenced by the extracellular concentration of protons (Kashiwagi et al., 1997; Saybasili et al., 1998; Mc Donald et al., 1998)]

[2] = tested on: distribution of GFP-actin fluorescence in hippocampal neurons; assay: GFP-actin fluorescence intensity in successive video frames; type: cell-based, rat
Text: In this example it is shown that AMPA treatment appears to involve a redistribution of spine actin. A further consistent consequence of treating hippocampal neurons with AMPA is a visible change in the distribution of GFP-actin fluorescence involving an apparent shift toward a concentration in the centre of the spine head. GFP-actin fluorescence intensity may be measured in successive frames of video recordings in which AMPA is transiently present. Measurements are made for a whole dendritic segment and within boxes of the same area placed in the center of spine heads or on the dendritic shaft, respectively. […] This phenomenon could reflect some general aspect of gfp fluorescence in response to an altered ion concentration or pH of the local cytoplasm. Fluorescence excitation of gfp in solution decreases at low pH. Therefore the observed decrease in brightness might be attributed to a lowered pH, mediated by glutamate receptor activation. Application of glutamate or Ca2+ ionophores to rat primary cultured hippocampal neurons is shown to induce a persistent acidosis. To account for this effect, data are normalized for single spines to the overall brightness of the dendrite. The average brightness from the boxes during the recordings for three randomly selected spines may then be evaluated. […] For above mentioned reasons, it is not entirely clear, if the apparent reduction in spine diameter is due to loss of actin fluorescence because of pH shifts or actin concentration in the center of spine heads, but comparison of phase and GFP-actin pictures argue in favour of changes in spine head size. The same caution has to apply to changes in the diameter of the spine neck, which have been postulated to influence synaptic weight by altering the electrical resistance. Those structures are extremely small and for a detailed analysis electronmicroscopic analysis would be favourable.

[3] = tested on: tadpoles; conditions: based on EC50 in tadpoles; read-out: Effective conc. for anesthesia; cited from earlier work
[4] = tested on: actin-based motility in dendritic spines; assay: video time-lapse recording of dendritic spine motility (shape factor) in GFP-actin transfected hippocampal neurons, volatile anaesthetics; type: cell-based, rat; conditions: for Effective conc. for spine motility: calculated from concentration of saturated solution at 25° C. used as stock solution; for effect on spine shape change / spine motility in presence of the anaesthetic: clinically relevant concentrations in saline; for spine motility after the anaesthetic is removed: washout
Experimental: To examine the influence of volatile anaesthetics on spine motility their effects on live, cultured hippocampal neurons that have been transfected with green fluorescent protein-tagged actin (GFP-actin) to render their dendritic spines visible are studied.
The following example further illustrates the employment of an assay according to the invention. First, the shape of a dendritic spine on a rat hippocampal neuron in culture as visualized by GFP-actin enriched in the spine head is recorded about every 5 sec over a period of about 6 min prior to perfusion with isoflurane. Then the cells are slowly perfused with isoflurane at clinically relevant concentrations in saline. This step is followed by an additional time-lapse recording over about 6 min. Then a morphometric analysis of spine shape is done using the integrated morphometry analysis interface in Metamorph 3.0. In particular, the shape factor calculated from the perimeter and the area of the spine illustrates changes in spine shape.
All reagents for cell culturing are obtained either from Life Technologies, Basel, Switzerland, or from Sigma Chemicals/Fluka Biochemicals, Buchs, Switzerland. […] Neurons are plated onto polylysine treated glass coverslips in Eagle's minimal essential medium supplemented with 10% horse serum. After a 4 hr incubation the coverslips are turned over onto confluent layers of primary astroglial feeder layers in chemically defined Eagle's minimal essential medium with N2 supplement. Over a time period of 3-4 weeks, neurons develop large networks of processes and eventually matured to carry synapses on dendritic spines.
For live imaging, coverslips are mounted in saline in closed observation chambers (Type 1, Life Imaging Services, Olten, Switzerland) and placed at 37° C. on a DM-IRBE inverted fluorescence microscope (Leica, Basel, Switzerland) equipped with high numerical aperture oil lenses and a GFP-optimized filter set (Chroma Technologies, Brattleboro, Vt., USA).
Images are captured using a cooled CCD camera (Princeton Instruments, Trenton, N.J., USA) and MetaMorph Imaging Software version 3.0 (Universal Imaging Corporation, West Chester, Pa., USA). Anaesthetics are diluted from saturated solutions in saline into prewarmed saline immediately prior to slow perfusion into the closed observation chambers at a rate of approx. 0.5 ml/min for a total exchange of 5 ml volume.
For analysis of spine shape over time the integrated morphometric function of MetaMorph 3.0, in particular the shape factor of thresholded objects calculated from their perimeter and their area, is used to log the data for individual images directly to Microsoft Excel 97.

[5] = in phosphate-buffered saline; McKenzie et al. 1995; cited from earlier work
[6] = tested on: rats; conditions: based on minimal alveolar concentration (MAC) in rats; cited from earlier work
[7] = tested on: pure actin; assay: pyrene-actin fluorescence assay of actin filament assembly in vitro; type: biochemical; conditions: during assembly or added to pre-formed filaments
Experimental: Since actin-based motility in dendritic spines depends on the actin polymerization cycle the possible influence of isoflurane on actin filament assembly is tested in vitro using a well-established pyrene-actin fluorescence assay.

[8] = tested on: rat embryo fibroblasts; assay: TPA-induced membrane ruffling, rhodamine-phalloidin staining of actin; type: cell-based; conditions: pretreatment of cells; 100 nM TPA 15 min
Text: The results of these experiments on neurons pose the question of whether volatile anaesthetics act directly on actin in dendritic spines or indirectly through neurotransmitter receptors, which are also influenced by these agents at clinically relevant concentrations, or some other component of central synapses. To choose between these possibilities the influence of volatile anaesthetics on actin-based motility is examined in fibroblastic cells, where neurotransmitter receptors and other elements of the synaptic machinery are absent. […] Resting layers of rat embryo fibroblasts in saline are treated for 15 min with 100 nM TPA which induces membrane ruffling. Cells are fixed and stained with rhodamine-labelled phalloidin to visualize actin enrichment in ruffles at the edges of the cells. […]
For analysis of the actin cytoskeleton in REF52, cells plated on glass coverlips are serum-starved for several hours prior to the experiment. […] Cells are then fixed with 4% paraformaldehyde (Fluka Biochemicals, Buchs, Switzerland) in phosphate-buffered saline with 0.02% Triton X-100 (Fluka Biochemicals, Buchs, Switzerland) and […] rhodamine-labelled phalloidin F(Sigma Chemicals, Buchs, Switzerland) for 10 min at room temperature, rinsed in phosphate-buffered saline and mounted in Vectashield (Vector Laboratories, Burlingame, Calif., USA) for inspection on the fluorescence microscope.

## Cc1onc(OCC(=O)O)c1CC(N)C(=O)O (stereo not shown) [AMOA, 2-amino-3-[3-(carboxymethoxy)-5-methyl-isoxazol-4-yl]propionic acid]
[1]; AMPA receptor antagonist applied with AMPA
  block of the effect of AMPA on spine motility: entirely blocked

## Cc1onc(O)c1CC(N)C(=O)O (stereo not drawn) [AMPA, α-amino-3-hydroxy-5-methylisoxazole-4-propionic acid]
[2]; after application of AMPA
  GFP-actin fluorescence intensity over the whole dendrite: decrease in intensity
[2]; normalized to overall brightness of the dendrite
  average brightness of the dendritic shaft: reduced
[2]; three randomly selected spines, normalized to overall brightness of the dendrite
  GFP-actin fluorescence intensity in the centre of spine heads: marked increase
[1]; 50 nM to 200 nM
  dendritic varicosities associated with subsequent cell death: do not produce dendritic varicosities
  reversibility of effect on spine motility: reversible
[1]; 200 nM AMPA present
  spine movement: spine movement effectively ceases
[1]; initial titration experiments
  lowest effective concentration on spine motility: 50 nM

## N[C@@H](CCCP(=O)(O)O)C(=O)O [APV]
[1]
  effect of NMDA receptor blockade on spine motility: equivalent
  influence on the inhibition of motility by AMPA: equivalent

## ClC(Cl)Cl [Chloroform]
[3]
  EC50: 1.3 mM
[4]
  Effective conc. for spine motility: 1.33 mM
  effect on spine shape change / spine motility in presence of the anaesthetic: variation in spine shape is minimal
  spine motility after the anaesthetic is removed: rapid changes in spine shape are resumed
[5]
  concentration of saturated solution: 66000 µM

## CCOCC [Diethylether, diethylether]
[3]
  EC50: 25 mM
[4]
  Effective conc. for spine motility: 20.4 mM
[5]
  concentration of saturated solution: 816000 µM

## FC(F)OC(F)(F)C(F)Cl (stereo not shown) [Enflurane]
[6]
  Effective conc. for anesthesia: 0.64^a mM
[4]
  Effective conc. for spine motility: 0.30 mM
[5]
  concentration of saturated solution: 11900 µM

## FC(F)(F)C(Cl)Br (stereo not shown) [Halothane]
[6]
  Effective conc. for anesthesia: 0.27^a mM
[4]
  Effective conc. for spine motility: 0.23 mM

## FC(F)OC(Cl)C(F)(F)F (stereo not shown) [Isoflurane]
[7]
  effect on polymerization state of pure actin: no detectable effect
[6]
  Effective conc. for anesthesia: 0.31^a mM
[4]
  Effective conc. for spine motility: 0.30 mM
  effect on spine shape change / spine motility in presence of the anaesthetic: it remains constant
  spine motility after the anaesthetic is removed: recovery of motility
[4]; dilution of 1:50 of saturated solution
  spine motility: fully inhibited
[4]; dilution of 1:60 of saturated solution
  spine motility: fully motile
[4]; dilution of 1:100 of saturated solution
  spine motility: fully motile
[5]
  concentration of saturated solution: 15300 µM
[8]
  TPA-induced actin ruffles: prevents TPA-induced actin ruffles

## C=C(C)[C@H]1CN[C@H](C(=O)O)[C@H]1CC(=O)O [Kainate]
[1]
  mimics the effect of AMPA on spine motility: mimicked

## C[C@]12N[C@H](Cc3ccccc31)c1ccccc12 [MK801]
[1]
  effect of NMDA receptor blockade on spine motility: does not inhibit spine motility
  influence on the inhibition of motility by AMPA: does not influence

## COC(F)(F)C(Cl)Cl [methoxyflurane, Methoxyflurane]
[5]
  concentration of saturated solution: 9100 µM
